Measured values from patent US9718828B2 (MERCK SHARP & DOHME CORP., priority 2011, dated 2017).
Counter-ions that a name gives are not always drawn.

Molecular target: hBTK (full-length BTK, 6HIS-tag cleaved) (Homo sapiens (Human), UniProt Q06187)
Assay: BTK enzymatic activity, LANCE TR-FRET assay (Assay Method C)
Assay type: biochemical
Details: LANCE TR-FRET, 50 pM hBTK, 25 μM ATP; class 100-1000 is given as ≧100 nM-<1 μM; read-out: IC50 Btk activity values - Assay Method C

Sequence of hBTK (full-length BTK, 6HIS-tag cleaved) (Q06187 whole entry): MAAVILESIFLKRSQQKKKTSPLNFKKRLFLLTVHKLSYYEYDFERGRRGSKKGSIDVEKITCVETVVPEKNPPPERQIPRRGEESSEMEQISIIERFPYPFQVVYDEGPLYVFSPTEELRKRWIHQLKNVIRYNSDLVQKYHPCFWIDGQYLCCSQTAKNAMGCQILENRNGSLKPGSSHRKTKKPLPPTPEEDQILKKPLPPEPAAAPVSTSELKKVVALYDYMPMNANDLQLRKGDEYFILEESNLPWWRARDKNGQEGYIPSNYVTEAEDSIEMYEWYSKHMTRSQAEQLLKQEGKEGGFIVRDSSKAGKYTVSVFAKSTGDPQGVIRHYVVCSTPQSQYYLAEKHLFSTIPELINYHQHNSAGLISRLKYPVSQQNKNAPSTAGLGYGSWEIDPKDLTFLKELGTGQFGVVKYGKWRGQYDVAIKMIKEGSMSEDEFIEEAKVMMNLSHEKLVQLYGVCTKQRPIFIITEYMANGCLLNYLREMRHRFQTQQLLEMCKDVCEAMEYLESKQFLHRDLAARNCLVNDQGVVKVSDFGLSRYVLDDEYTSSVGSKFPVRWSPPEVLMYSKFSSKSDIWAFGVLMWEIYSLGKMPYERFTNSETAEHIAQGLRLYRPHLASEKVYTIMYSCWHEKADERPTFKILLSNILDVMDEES

IC50 [nM] | SMILES
< 10 | Cc1cnc(N)c2c(-c3ccc(C(=O)Nc4cc(C(F)F)ccn4)cc3F)nc([C@@H]3CC[C@H](C)N(C(=O)C4(C)COC4)C3)n12 [Example 462, 4-(8-amino-5-methyl-3-{(3R,6S)-6-methyl-1-[(3-methyloxetan-3-yl)carbonyl]piperidin-3-yl}imidazo[1,5-a]pyrazin-1-yl)-N-[4-(difluoromethyl)pyridin-2-yl]-3-fluorobenzamide]
< 10 | CCc1ccnc(NC(=O)c2ccc(-c3nn([C@@H]4CCCN(C(=O)C5(C)COC5)C4)c4ccnc(N)c34)cc2)c1 [Example 386, 4-(4-amino-1-{(3R)-1-[(3-methyloxetan-3-yl)carbonyl]piperidin-3-yl}-1H-pyrazolo[4,3-c]pyridin-3-yl)-N-(4-ethylpyridin-2-yl)benzamide]
< 10 | CNC(=O)N1C[C@@H](c2nc(-c3ccc(C(=O)Nc4cc(C(F)(F)F)ccn4)cc3)c3c(N)nccn23)CC[C@@H]1C(F)(F)F [Example 412, (2R,5S)-5-[8-amino-1-(4-{[4-(trifluoromethyl)pyridin-2-yl]carbamoyl}phenyl)imidazo[1,5-a]pyrazin-3-yl]-N-methyl-2-(trifluoromethyl)piperidine-1-carboxamide]
10 to 100 | CCN1CCC(c2nc(-c3ccc(C(=O)Nc4cc(C(F)(F)F)ccn4)cc3)c3c(N)nccn23)CC1=O (stereo not shown) [Example 573, 4-[8-amino-3-(1-ethyl-2-oxopiperidin-4-yl)imidazo[1,5-a]pyrazin-1-yl]-N-[4-(trifluoromethyl)-pyridin-2-yl]benzamide, TFA salt]
< 10 | COCC(=O)N1CCC[C@@H](c2nc(-c3ccc(C(=O)Nc4cc(C(F)(F)F)ccn4)cc3F)c3c(N)ncc(COC)n23)C1 [Example 452, 4-{8-amino-3-[(3R)-1-(methoxyacetyl)piperidin-3-yl]-5-(methoxymethyl)imidazo[1,5-a]pyrazin-1-yl}-3-fluoro-N-[4-(trifluoromethyl)pyridin-2-yl]benzamide]
< 10 | CC1(C(=O)N2CCC[C@@H](n3nc(-c4ccc(C(=O)Nc5cc(C(F)(F)F)ccn5)cc4)c4c(N)nccc43)C2)COC1 [Example 381, 4-(4-amino-1-{(3R)-1-[(3-methyloxetan-3-yl)carbonyl]piperidin-3-yl}-1H-pyrazolo[4,3-c]pyridin-3-yl)-N-[4-(trifluoromethyl)pyridin-2-yl]benzamide]
< 10 | CC(=O)N1CCC[C@@H](n2nc(-c3ccc(C(=O)Nc4cc(C(F)(F)F)ccn4)cc3)c3c(N)nccc32)C1 [Example 385, 4-{1-[(3R)-1-acetylpiperidin-3-yl]-4-amino-1H-pyrazolo[4,3-c]pyridin-3-yl}-N-[4-(trifluoromethyl)pyridin-2-yl]benzamide]
< 10 | CCn1ncc2c1CCC[C@H]2n1nc(-c2ccc(C(=O)Nc3cc(C(F)(F)F)ccn3)cc2)c2c(N)ncnc21 [Example 559, 4-{4-amino-1-[(4R)-1-ethyl-4,5,6,7-tetrahydro-1H-indazol-4-yl]-1H-pyrazolo[3,4-d]pyrimidin-3-yl}-N-[4-(trifluoromethyl)pyridin-2-yl]benzamide, TFA salt]
< 10 | CN(C)C(=O)N1C[C@@H](c2nc(-c3ccc(C(=O)Nc4cc(C(F)(F)F)ccn4)cc3)c3c(N)nccn23)CC[C@@H]1C(F)(F)F [Example 426, (2R,5S)-5-[8-amino-1-(4-{[4-(trifluoromethyl)pyridin-2-yl]carbamoyl}phenyl)imidazo[1,5-a]pyrazin-3-yl]-N,N-dimethyl-2-(trifluoromethyl)piperidine-1-carboxamide]
< 10 | CO[C@@H](C)c1cnc(N)c2c(-c3ccc(C(=O)Nc4cc(C(F)(F)F)ccn4)cc3)nc([C@@H]3CCCN(C(=O)C4(C)COC4)C3)n12 [Example 468, 4-(8-amino-5-[(1S)-1-methoxyethyl]-3-{(3R)-1-[(3-methyloxetan-3-yl)carbonyl]piperidin-3-yl}imidazo[1,5-a]pyrazin-1-yl)-N-[4-(trifluoromethyl)pyridin-2-yl]benzamide]
< 10 | CC(=O)N1C[C@@H](c2nc(-c3ccc(C(=O)Nc4cc(C(F)(F)F)ccn4)cc3)c3c(N)nccn23)CC[C@@H]1C(F)(F)F [Example 427, 4-{3-[(3S,6R)-1-acetyl-6-(trifluoromethyl)piperidin-3-yl]-8-aminoimidazo[1,5-a]pyrazin-1-yl}-N-[4-(trifluoromethyl)pyridin-2-yl]benzamide]
< 10 | CN1CCC[C@H]1C(=O)N1CCC[C@@H](c2nc(-c3ccc(C(=O)Nc4cc(C(F)(F)F)ccn4)cc3)c3c(N)nccn23)C1 [Example 341, 4-{8-amino-3-[(3R)-1-(1-methyl-L-prolyl)piperidin-3-yl]imidazo[1,5-a]pyrazin-1-yl}-N-[4-(trifluoromethyl)pyridin-2-yl]benzamide]
< 10 | Nc1nccn2c([C@@H]3CCCN(C(=O)CCC(F)(F)F)C3)nc(-c3ccc(C(=O)Nc4cc(C(F)(F)F)ccn4)cc3)c12 [Example 331, 4-{8-amino-3-[(3R)-1-(4,4,4-trifluorobutanoyl)piperidin-3-yl]imidazo[1,5-a]pyrazin-1-yl}-N-[4-(trifluoromethyl)pyridin-2-yl]benzamide]
10 to 100 | CC1(C(=O)N2CCC[C@@H](c3nc(-c4ccc(C(=O)Nc5ccc(F)cn5)cc4)c4c(N)nccn34)C2)COC1 [Example 351, 4-(8-amino-3-{(3R)-1-[(3-methyloxetan-3-yl)carbonyl]piperidin-3-yl}imidazo[1,5-a]pyrazin-1-yl)-N-(5-fluoropyridin-2-yl)benzamide]
< 10 | Nc1nccn2c([C@H]3CN(C4COC4)CCO3)nc(-c3ccc(C(=O)Nc4cc(C(F)(F)F)ccn4)cc3)c12 [Example 550, 4-{8-amino-3-[(2R)-4-oxetan-3-ylmorpholin-2-yl]imidazo[1,5-a]pyrazin-1-yl}-N-[4-(trifluoromethyl)pyridin-2-yl]benzamide, TFA salt]
< 10 | CC1(C(=O)N2CCC[C@@H](c3nc(-c4ccc(C(=O)Nc5cc(C6CCC6)ccn5)cc4)c4c(N)nccn34)C2)COC1 [Example 354, 4-(8-amino-3-{(3R)-1-[(3-methyloxetan-3-yl)carbonyl]piperidin-3-yl}imidazo[1,5-a]pyrazin-1-yl)-N-(4-cyclobutylpyridin-2-yl)benzamide]
< 10 | Cc1cnc(N)c2c(-c3ccc(C(=O)Nc4cc(C(F)(F)F)ccn4)cc3F)nc([C@H]3CN(C(=O)C4(C)COC4)CCO3)n12 [Example 514, 4-(8-amino-5-methyl-3-{(2R)-4-[(3-methyloxetan-3-yl)carbonyl]morpholin-2-yl}imidazo[1,5-a]pyrazin-1-yl)-3-fluoro-N-[4-(trifluoromethyl)pyridin-2-yl]benzamide]
10 to 100 | Cc1cnc(N)c2c(-c3ccc(C(=O)Nc4cc(C(F)(F)F)ccn4)cc3)nc([C@H]3CN(C(=O)C4(C)COC4)CCO3)n12 [Example 506, 4-(8-amino-5-methyl-3-{(2R)-4-[(3-methyloxetan-3-yl)carbonyl]morpholin-2-yl}imidazo[1,5-a]pyrazin-1-yl)-N-[4-(trifluoromethyl)pyridin-2-yl]benzamide]
< 10 | CN1CC(C(=O)N2CCO[C@@H](c3nc(-c4ccc(C(=O)Nc5cc(C(F)(F)F)ccn5)cc4)c4c(N)nccn34)C2)C1 [Example 501, 4-(8-amino-3-{(2R)-4-[(1-methylazetidin-3-yl)carbonyl]morpholin-2-yl}imidazo[1,5-a]pyrazin-1-yl)-N-[4-(trifluoromethyl)pyridin-2-yl]benzamide]
